For this experiment, the target named is T1, MAGL (Homo sapiens, UniProt Q99685).
T1 sequence (Q99685 1-303): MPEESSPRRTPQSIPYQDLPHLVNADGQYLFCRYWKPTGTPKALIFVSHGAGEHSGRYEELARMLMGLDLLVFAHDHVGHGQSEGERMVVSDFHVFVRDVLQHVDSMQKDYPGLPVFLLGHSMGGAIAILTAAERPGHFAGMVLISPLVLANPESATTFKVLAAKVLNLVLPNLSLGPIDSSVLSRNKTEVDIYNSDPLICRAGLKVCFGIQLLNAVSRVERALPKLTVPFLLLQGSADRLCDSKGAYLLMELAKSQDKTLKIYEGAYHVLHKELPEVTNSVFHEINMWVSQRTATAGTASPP
Put plainly: 2-AG assay: MAGL inhibitory activity by hydrolysis of 2-arachidonoylglycerol to arachidonic acid, mass spectrometry. Type of experiment: biochemical. The settings on record: 2-AG assay (values marked [b]). The gist of the method: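 Hydrolysis of 8 μM 2-arachidonoylglycerol by […] was run for 30 min at RT after a 15 min compound preincubation, in Tris/EDTA/Tween buffer. Test compounds spanned […]. The product was measured by online SPE-MS/MS (transitions 303.1→259.1 and 311.1→267.0), and activity was derived from the arachidonic acid/d8-arachidonic acid signal ratio.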

pIC50: −log10 of the molar value.

In general, pIC50 refers to the negative decadic logarithm of the IC50, by convention in mol/L. High values mean a small IC50, low ones a large IC50.

For the compound `O=C(c1ccc(OCC2(C(F)(F)F)CC2)nc1Cl)N1CCN(c2nc3nc(Cl)ccc3o2)CC1` [Example 276, [4-(5-chlorooxazolo[4,5-b]pyridin-2-yl)piperazin-1-yl]-[2-chloro-6-[[1-(trifluoromethyl)cyclopropyl]methoxy]-3-pyridyl]methanone], the pIC50 was 5.82.
Under `Cc1ccc2oc(N3CCN(C(=O)c4ccc(-c5nnn(CC(C)(C)C)n5)cc4)CC3)nc2n1` [Example 277, (4-(5-methyloxazolo[4,5-b]pyridin-2-yl)piperazin-1-yl)(4-(2-neopentyl-2H-tetrazol-5-yl)phenyl)methanone] stands 8.05; under `CC(C)(C)c1nnc(-c2ncc(C(=O)N3CCN(c4nc5nc(Cl)ccc5o4)CC3)cc2F)o1` [Example 278, [6-(5-tert-butyl-1,3,4-oxadiazol-2-yl)-5-fluoro-3-pyridyl]-[4-(5-chlorooxazolo[4,5-b]pyridin-2-yl)piperazin-1-yl]methanone], 6.10; under `CC(C)(C)Cn1cc(-c2ncc(C(=O)N3CCN(c4nc5nc(Cl)ccc5o4)CC3)cc2C(F)(F)F)cn1` [Example 279, [4-(5-chlorooxazolo[4,5-b]pyridin-2-yl)piperazin-1-yl]-[6-[1-(2,2-dimethylpropyl)pyrazol-4-yl]-5-(trifluoromethyl)-3-pyridyl]methanone], 7.96.
`CC(C)(CF)c1nnc(-c2ccc(C(=O)N3CCN(c4nc5nc(Cl)ccc5o4)CC3)cc2F)o1` [Example 280, [4-(5-chlorooxazolo[4,5-b]pyridin-2-yl)piperazin-1-yl]-[3-fluoro-4-[5-(2-fluoro-1,1-dimethyl-ethyl)-1,3,4-oxadiazol-2-yl]phenyl]methanone] gave a pIC50 of 6.92.
On to `CC(C)(C)c1nnc(-c2ccc(C(=O)N3CCN(c4nc5nc(Cl)ccc5o4)CC3)cc2F)o1` [Example 281, [4-(5-tert-butyl-1,3,4-oxadiazol-2-yl)-3-fluoro-phenyl]-[4-(5-chlorooxazolo[4,5-b]pyridin-2-yl)piperazin-1-yl]methanone], for which the pIC50 is 7.44.
To `Cc1ccc2oc(N3CCN(C(=O)c4cnc(-c5cnn(CC(C)(C)C)c5)c(C(F)(F)F)c4)CC3)nc2n1` [Example 282, [6-[1-(2,2-dimethylpropyl)pyrazol-4-yl]-5-(trifluoromethyl)-3-pyridyl]-[4-(5-methyloxazolo[4,5-b]pyridin-2-yl)piperazin-1-yl]methanone] belongs 7.96.
With `CC(C)(C)Cn1nnc(-c2ccc(C(=O)N3CCN(c4nc5nc(Cl)ccc5o4)CC3)cc2)n1` [Example 283, (4-(5-chlorooxazolo[4,5-b]pyridin-2-yl)piperazin-1-yl)(4-(2-neopentyl-2H-tetrazol-5-yl)phenyl)methanone], the pIC50 was 8.52.
To `CC(C)(C)c1nc(-c2ccc(C(=O)N3CC4CCC(C3)N4c3nc4nc(Cl)ccc4o3)cc2)no1` [Example 284, [4-(5-tert-butyl-1,2,4-oxadiazol-3-yl)phenyl]-[8-(5-chlorooxazolo[4,5-b]pyridin-2-yl)-3,8-diazabicyclo[3.2.1]octan-3-yl]methanone] belongs 6.46; to `CC(C)(C)Cn1cc(-c2ccc(C(=O)N3CCN(c4nc5nc(Cl)ccc5o4)C(CO)C3)cc2)nn1` (stereo not shown) [Example 285, [4-(5-chlorooxazolo[4,5-b]pyridin-2-yl)-3-(hydroxymethyl)piperazin-1-yl]-[4-[1-(2,2-dimethylpropyl)triazol-4-yl]phenyl]methanone], 5.69; to `CC(C)(C)Cn1cc(-c2ccc(C(=O)N3CCN(c4nc5nc(F)ccc5o4)CC3)cc2)nn1` [Example 286, [4-[1-(2,2-dimethylpropyl)triazol-4-yl]phenyl]-[4-(5-fluorooxazolo[4,5-b]pyridin-2-yl)piperazin-1-yl]methanone], 7.35.
Under `Cc1cc(C(=O)N2CCN(c3nc4nc(Cl)ccc4o3)CC2)ccc1-n1cnc(C(C)(C)C)n1` [Example 287, [4-(3-tert-butyl-1,2,4-triazol-1-yl)-3-methyl-phenyl]-[4-(5-chlorooxazolo[4,5-b]pyridin-2-yl)piperazin-1-yl]methanone] stands 6.94; under `Cc1ccc2oc(N3CCN(C(=O)c4ccc(-n5cnc(C(C)(C)C)n5)c(C)c4)CC3)nc2n1` [Example 288, [4-(3-tert-butyl-1,2,4-triazol-1-yl)-3-methyl-phenyl]-[4-(5-methyloxazolo[4,5-b]pyridin-2-yl)piperazin-1-yl]methanone], 6.76; under `Cc1ccc2oc(N3CCN(C(=O)c4ccc(-n5cnc(C(C)(C)C)n5)c(Cl)c4)CC3)nc2n1` [Example 291, [4-(3-tert-butyl-1,2,4-triazol-1-yl)-3-chloro-phenyl]-[4-(5-methyloxazolo[4,5-b]pyridin-2-yl)piperazin-1-yl]methanone], 6.76.
`CC(C)(C)c1ncn(-c2ccc(C(=O)N3CCN(c4nc5nc(Cl)ccc5o4)CC3)cc2Cl)n1` [Example 292, [4-(3-tert-butyl-1,2,4-triazol-1-yl)-3-chloro-phenyl]-[4-(5-chlorooxazolo[4,5-b]pyridin-2-yl)piperazin-1-yl]methanone] showed a negative logarithm of the IC50 (pIC50) of 7.12.
To `CC(C)(C)Cn1cnc(-c2ccc(C(=O)N3CCN(c4nc5nc(Cl)ccc5o4)CC3)cc2F)n1` [Example 293, [4-(5-chlorooxazolo[4,5-b]pyridin-2-yl)piperazin-1-yl]-[4-[1-(2,2-dimethylpropyl)-1,2,4-triazol-3-yl]-3-fluoro-phenyl]methanone] belongs 7.70; to `Cc1ccc2oc(N3CCN(C(=O)c4ccc(-c5ncn(CC(C)(C)C)n5)c(F)c4)CC3)nc2n1` [Example 294, [4-[1-(2,2-dimethylpropyl)-1,2,4-triazol-3-yl]-3-fluoro-phenyl]-[4-(5-methyloxazolo[4,5-b]pyridin-2-yl)piperazin-1-yl]methanone], 7.47; to `CC1CN(c2nc3nc(Cl)ccc3o2)CCN1C(=O)c1ccc(-c2cn(CC(C)(C)C)nn2)cc1` (stereo not shown) [Example 295, [4-(5-chlorooxazolo[4,5-b]pyridin-2-yl)-2-methyl-piperazin-1-yl]-[4-[1-(2,2-dimethylpropyl)triazol-4-yl]phenyl]methanone], 6.61.
Under `Cc1ccc2oc(N3CCN(C(=O)c4ccc(OCC5(C(F)(F)F)CC5)nc4Cl)CC3)nc2n1` [Example 296, [2-chloro-6-[[1-(trifluoromethyl)cyclopropyl]methoxy]-3-pyridyl]-[4-(5-methyloxazolo[4,5-b]pyridin-2-yl)piperazin-1-yl]methanone] stands 5.58.
To `CC(C)(C)c1nc(-c2ccc(C(=O)N3C4CCC3CN(c3nc5nc(Cl)ccc5o3)C4)cc2)no1` [Example 297, [4-(5-tert-butyl-1,2,4-oxadiazol-3-yl)phenyl]-[3-(5-chlorooxazolo[4,5-b]pyridin-2-yl)-3,8-diazabicyclo[3.2.1]octan-8-yl]methanone] belongs 7.00.
`CC(C)(F)Cc1nnc(-c2ccc(C(=O)N3CCN(c4nc5nc(Cl)ccc5o4)CC3)cc2F)o1` [Example 298, [4-(5-chlorooxazolo[4,5-b]pyridin-2-yl)piperazin-1-yl]-[3-fluoro-4-[5-(2-fluoro-2-methyl-propyl)-1,3,4-oxadiazol-2-yl]phenyl]methanone]: the pIC50 is 7.02. The pIC50 values of the last two compounds are within 0.2 log units of each other.
Under `Cc1ccc2oc(N3CCN(C(=O)c4cc(F)c(-c5nnn(CC(C)(C)C)n5)c(F)c4)CC3)nc2n1` [Example 299, [4-[2-(2,2-dimethylpropyl)tetrazol-5-yl]-3,5-difluoro-phenyl]-[4-(5-methyloxazolo[4,5-b]pyridin-2-yl)piperazin-1-yl]methanone] stands 7.51; under `CC(C)(C)Cn1nnc(-c2c(F)cc(C(=O)N3CCN(c4nc5nc(Cl)ccc5o4)CC3)cc2F)n1` [Example 300, [4-(5-chlorooxazolo[4,5-b]pyridin-2-yl)piperazin-1-yl]-[4-[2-(2,2-dimethylpropyl)tetrazol-5-yl]-3,5-difluoro-phenyl]methanone], 8.00.
Under `Cc1ccc2oc(N3CCN(C(=O)c4ccc(-c5nnn(CC(C)(C)C)n5)c(C)c4)CC3)nc2n1` [Example 301, [4-[2-(2,2-dimethylpropyl)tetrazol-5-yl]-3-methyl-phenyl]-[4-(5-methyloxazolo[4,5-b]pyridin-2-yl)piperazin-1-yl]methanone] stands 8.52.
`Cc1cc(C(=O)N2CCN(c3nc4nc(Cl)ccc4o3)CC2)ccc1-c1nnn(CC(C)(C)C)n1` [Example 302, [4-(5-chlorooxazolo[4,5-b]pyridin-2-yl)piperazin-1-yl]-[4-[2-(2,2-dimethylpropyl)tetrazol-5-yl]-3-methyl-phenyl]methanone] gave a pIC50 of 8.70.
To `Cc1ccc2oc(N3CCN(C(=O)c4ccc(-c5nnn(CC(C)(C)C)n5)c(F)c4)CC3)nc2n1` [Example 303, [4-[2-(2,2-dimethylpropyl)tetrazol-5-yl]-3-fluoro-phenyl]-[4-(5-methyloxazolo[4,5-b]pyridin-2-yl)piperazin-1-yl]methanone] belongs 8.15; to `CC(C)(C)Cn1nnc(-c2ccc(C(=O)N3CCN(c4nc5nc(Cl)ccc5o4)CC3)cc2F)n1` [Example 304, [4-(5-chlorooxazolo[4,5-b]pyridin-2-yl)piperazin-1-yl]-[4-[2-(2,2-dimethylpropyl)tetrazol-5-yl]-3-fluoro-phenyl]methanone], 8.40.
To `CC(C)(C)Cn1nnc(-c2ncc(C(=O)N3CCN(c4nc5nc(Cl)ccc5o4)CC3)cc2F)n1` [Example 306, [4-(5-chlorooxazolo[4,5-b]pyridin-2-yl)piperazin-1-yl]-[6-[2-(2,2-dimethylpropyl)tetrazol-5-yl]-5-fluoro-3-pyridyl]methanone] belongs 6.44.

The values are drawn from patent US20220135591A1, “HETEROCYCLIC COMPOUNDS AS INHIBITORS OF MONOACYLGLYCEROL LIPASE (MAGL)” (Hoffmann-La Roche Inc., priority 2019, published 2022).
